Laboratory results as given in patent US10941136B2, “Quinazoline derivative or its salt and pharmaceutical composition comprising the same” (YUHAN CORPORATION, priority 2016, dated 2021).

Legend:
Format in all cases: biochemical
PI3Kα (p110α/p85α)(h) = target: T1, PI3Kα (p110α/p85α)(h) (Homo sapiens, UniProt P42336); experiment: PI3K-HTRF in vitro enzyme assay, PI3Kα; conditions: enzyme 0.1 μg/ml
T1 construct: purchased Upstate (Millipore Co) #14-602
Method: (§1) The compounds of the present invention were tested for the activity of phosphatidylinositol 3-kinase delta (PI3K) by using a PI3K enzyme-homogeneous time resolved fluorescence (PI3K-HTRF) kit, which is available under Upstate™ kit (Millipore Co, Billerica, Mass., USA). This kit system measures indirectly the amount of PIP3 produced via PI3K by detecting competitive inhibition of fluorescence complex formation.
(§2) There were used three kinds of buffer solutions, i.e., reaction buffer, stop solution, and detection solution. The reaction buffer was prepared by diluting Reaction Buffer (provided in Update™ kit) with distilled water 4 times and adding DTT to a concentration of 5 mM. The stop solution was prepared by combining STOP A and B Solutions (provided in Update™ kit) in a ratio of 3:1. The detection solution was prepared by combining Detection Solution A, B and C (provided in Update™ kit) in a ratio of 1:1:18. A substrate solution and an ATP solution were prepared by diluting the 1 mM PIP2 (phosphatidyl inositol 4,5 bi-phosphate) stock solution (provided in Update™ kit) and 10 mM ATP (Sigma-aldrich Co., St. Louis, Mo., USA) stock solution with the reaction buffer to concentrations of 20 μM and 40 μM, respectively. An enzyme solution was prepared by diluting PI3Kδ (#14˜604; Upstate™ kit) with the substrate solution to the concentration of 0.2 μg/ml (final reaction concentration: 0.1 μg/ml).
(§3) The test groups were prepared by dissolving each compound in 100% DMSO at 40× the final concentration and then diluting 10-fold with the reaction buffer. 5 μl of each diluted test group solution was transferred to a 384 well low flange white flat bottom microplate (#3572, Corning Life Sciences, Lowell, Mass., USA). We performed centrifuge (1 minute, 1000 rpm) and shaking for 2 minutes after every solution-adding step in this experiment. Next, 10 μl of the enzyme solution was added to each well. A mixed solution of the substrate solution (10 μl) plus 5 μl of the 100% DMSO diluted solution without test compound (i.e., 10% DMSO solution) was used as a negative control. And also, a mixed solution of enzyme solution (10 μl) plus 5 μl of the 100% DMSO diluted solution without test compound (i.e., 10% DMSO solution) was used as a positive control. This plate was pre-incubated for 10 minutes in a 25° C. incubator. After the pre-incubation, the phosphorylation reaction was induced by adding 5 μl of the ATP solution and the plate was incubated for 30 minutes in a 25° C. incubator. This enzyme reaction was stopped by 5 μl of the stop solution and then 5 μl of the detection solution was added thereto. To obtain enough fluorescence responses, the plate was incubated for 2 hours in a 25° C. incubator protected from light.
(§4) The time-resolved fluorescence resonance energy transfer (TR-FRET) rate was measured (emission wavelength: 665 nm, 620 nm, excitation wavelength: 313 nm) by using a Flexstation3 Micro plate reader (Molecular Devices, USA). TR-FRET Rate was calculated based on the Equation 1 and using these TR-FRET Rates, % inhibition rate of each compound was calculated based on the Equation 2. The IC50 values, i.e., the concentration of a test compound that inhibits 50% of PI3Kδ activity in vitro, are generated by Softmax program (Molecular Devices, USA). TR-FRET Rate=(Signal at 665 nm emission wavelength/Signal at 620 nm emission wavelength)×10000 <Equation 1> % Inhibition Rate=[(TR-FRET Rate of the test group−TR-FRET Rate of the positive control group)/(TR-FRET Rate of the negative control group−TR-FRET Rate of the positive control group)]×100 <Equation 2>
(§5) The compounds of the present invention were assayed for the activities of PI3K subtypes, i.e., PI3Kα, PI3Kβ and PI3Kγ, using the same procedures as in Experimental Example 1. […]

PI3Kδ (p110δ/p85α)(h) = target: T2, PI3Kδ (p110δ/p85α)(h) (Homo sapiens, UniProt O00329); experiment: PI3K-HTRF in vitro enzyme assay, PI3Kδ; conditions: enzyme 0.1 μg/ml
T2 construct: purchased Upstate (Millipore Co, Billerica, Mass., USA) #14˜604
Method: as §1, §2, §3, §4

PI3Kγ (p120γ)(h) = target: T3, PI3Kγ (p120γ)(h) (Homo sapiens, UniProt P48736); experiment: PI3K-HTRF in vitro enzyme assay, PI3Kγ; conditions: enzyme 0.4 μg/ml
T3 construct: purchased Upstate (Millipore Co) #14-558
Method: as §1, §2, §3, §4, §5

T1 sequence (P42336 whole entry): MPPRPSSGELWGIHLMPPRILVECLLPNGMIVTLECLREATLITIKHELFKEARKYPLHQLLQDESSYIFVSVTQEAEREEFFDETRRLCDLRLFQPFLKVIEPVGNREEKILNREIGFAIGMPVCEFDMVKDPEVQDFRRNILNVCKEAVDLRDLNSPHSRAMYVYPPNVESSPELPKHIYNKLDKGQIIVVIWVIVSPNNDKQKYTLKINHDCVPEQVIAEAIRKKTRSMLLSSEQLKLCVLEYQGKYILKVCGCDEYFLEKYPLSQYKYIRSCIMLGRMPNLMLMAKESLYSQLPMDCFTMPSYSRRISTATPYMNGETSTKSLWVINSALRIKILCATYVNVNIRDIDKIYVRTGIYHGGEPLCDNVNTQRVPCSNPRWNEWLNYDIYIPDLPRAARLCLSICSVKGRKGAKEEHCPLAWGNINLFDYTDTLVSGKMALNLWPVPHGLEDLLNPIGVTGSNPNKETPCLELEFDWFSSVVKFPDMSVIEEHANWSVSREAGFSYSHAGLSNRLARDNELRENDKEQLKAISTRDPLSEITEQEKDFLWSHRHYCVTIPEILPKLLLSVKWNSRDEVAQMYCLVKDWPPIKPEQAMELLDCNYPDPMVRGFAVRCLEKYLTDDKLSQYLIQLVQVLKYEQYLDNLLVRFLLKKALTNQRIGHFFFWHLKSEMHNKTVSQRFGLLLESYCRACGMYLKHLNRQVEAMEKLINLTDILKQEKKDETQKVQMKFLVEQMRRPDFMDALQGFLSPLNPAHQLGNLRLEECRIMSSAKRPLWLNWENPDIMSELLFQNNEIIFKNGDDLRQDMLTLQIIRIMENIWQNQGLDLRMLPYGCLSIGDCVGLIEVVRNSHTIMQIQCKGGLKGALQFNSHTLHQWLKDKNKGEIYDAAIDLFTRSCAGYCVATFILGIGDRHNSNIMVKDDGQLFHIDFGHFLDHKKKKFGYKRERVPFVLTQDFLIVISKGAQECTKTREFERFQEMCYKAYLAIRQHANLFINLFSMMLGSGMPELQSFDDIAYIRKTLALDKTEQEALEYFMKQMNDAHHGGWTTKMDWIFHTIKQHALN
T1 sequence (P27986 whole entry partner): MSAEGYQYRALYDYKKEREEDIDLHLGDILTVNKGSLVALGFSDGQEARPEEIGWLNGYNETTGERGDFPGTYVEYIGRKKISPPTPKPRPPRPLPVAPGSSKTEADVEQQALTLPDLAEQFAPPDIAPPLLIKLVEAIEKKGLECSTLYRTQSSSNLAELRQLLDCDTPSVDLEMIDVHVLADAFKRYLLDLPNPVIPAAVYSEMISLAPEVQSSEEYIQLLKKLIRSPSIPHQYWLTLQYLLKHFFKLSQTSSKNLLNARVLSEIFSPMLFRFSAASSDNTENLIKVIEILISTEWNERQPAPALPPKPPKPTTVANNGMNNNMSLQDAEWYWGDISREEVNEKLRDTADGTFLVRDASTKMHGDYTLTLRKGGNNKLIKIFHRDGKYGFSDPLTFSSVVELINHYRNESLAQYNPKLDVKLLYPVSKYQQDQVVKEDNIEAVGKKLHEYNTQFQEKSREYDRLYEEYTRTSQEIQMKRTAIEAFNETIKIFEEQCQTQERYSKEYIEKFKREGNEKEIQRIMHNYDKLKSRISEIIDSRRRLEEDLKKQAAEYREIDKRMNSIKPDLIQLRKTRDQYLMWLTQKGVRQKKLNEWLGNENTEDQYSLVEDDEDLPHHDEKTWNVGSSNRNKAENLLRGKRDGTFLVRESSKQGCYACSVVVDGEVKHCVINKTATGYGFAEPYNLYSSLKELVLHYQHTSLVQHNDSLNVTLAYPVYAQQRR
T2 sequence (O00329 whole entry): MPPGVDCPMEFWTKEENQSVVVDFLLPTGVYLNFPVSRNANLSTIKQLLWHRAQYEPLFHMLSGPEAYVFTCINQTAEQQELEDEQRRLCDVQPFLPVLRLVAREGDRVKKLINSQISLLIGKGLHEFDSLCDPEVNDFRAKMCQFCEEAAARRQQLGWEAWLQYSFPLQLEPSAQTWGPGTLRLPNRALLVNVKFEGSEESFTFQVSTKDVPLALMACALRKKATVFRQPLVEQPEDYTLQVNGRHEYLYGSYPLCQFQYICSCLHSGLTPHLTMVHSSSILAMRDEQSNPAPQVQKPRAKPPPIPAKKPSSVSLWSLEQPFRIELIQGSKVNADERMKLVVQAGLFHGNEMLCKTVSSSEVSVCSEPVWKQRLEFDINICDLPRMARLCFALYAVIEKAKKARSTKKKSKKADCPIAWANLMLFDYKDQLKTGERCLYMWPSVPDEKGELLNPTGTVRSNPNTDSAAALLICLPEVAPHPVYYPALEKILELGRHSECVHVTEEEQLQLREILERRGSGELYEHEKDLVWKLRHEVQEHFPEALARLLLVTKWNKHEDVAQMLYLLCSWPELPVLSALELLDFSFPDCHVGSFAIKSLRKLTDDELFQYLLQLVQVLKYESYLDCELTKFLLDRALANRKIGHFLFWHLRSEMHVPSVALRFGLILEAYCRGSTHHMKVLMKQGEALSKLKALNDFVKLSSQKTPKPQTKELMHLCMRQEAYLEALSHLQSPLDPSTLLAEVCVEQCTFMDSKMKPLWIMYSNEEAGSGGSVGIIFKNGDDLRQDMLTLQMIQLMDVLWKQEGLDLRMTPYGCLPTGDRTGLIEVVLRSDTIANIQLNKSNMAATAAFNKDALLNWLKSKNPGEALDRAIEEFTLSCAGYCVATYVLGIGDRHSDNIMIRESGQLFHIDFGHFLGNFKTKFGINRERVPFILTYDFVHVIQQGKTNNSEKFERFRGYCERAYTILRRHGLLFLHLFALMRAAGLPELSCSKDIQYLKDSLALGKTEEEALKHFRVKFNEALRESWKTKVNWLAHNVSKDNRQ
T2 sequence (P27986 whole entry partner): as the sequence (P27986 whole entry partner) above
T3 sequence (P48736 whole entry): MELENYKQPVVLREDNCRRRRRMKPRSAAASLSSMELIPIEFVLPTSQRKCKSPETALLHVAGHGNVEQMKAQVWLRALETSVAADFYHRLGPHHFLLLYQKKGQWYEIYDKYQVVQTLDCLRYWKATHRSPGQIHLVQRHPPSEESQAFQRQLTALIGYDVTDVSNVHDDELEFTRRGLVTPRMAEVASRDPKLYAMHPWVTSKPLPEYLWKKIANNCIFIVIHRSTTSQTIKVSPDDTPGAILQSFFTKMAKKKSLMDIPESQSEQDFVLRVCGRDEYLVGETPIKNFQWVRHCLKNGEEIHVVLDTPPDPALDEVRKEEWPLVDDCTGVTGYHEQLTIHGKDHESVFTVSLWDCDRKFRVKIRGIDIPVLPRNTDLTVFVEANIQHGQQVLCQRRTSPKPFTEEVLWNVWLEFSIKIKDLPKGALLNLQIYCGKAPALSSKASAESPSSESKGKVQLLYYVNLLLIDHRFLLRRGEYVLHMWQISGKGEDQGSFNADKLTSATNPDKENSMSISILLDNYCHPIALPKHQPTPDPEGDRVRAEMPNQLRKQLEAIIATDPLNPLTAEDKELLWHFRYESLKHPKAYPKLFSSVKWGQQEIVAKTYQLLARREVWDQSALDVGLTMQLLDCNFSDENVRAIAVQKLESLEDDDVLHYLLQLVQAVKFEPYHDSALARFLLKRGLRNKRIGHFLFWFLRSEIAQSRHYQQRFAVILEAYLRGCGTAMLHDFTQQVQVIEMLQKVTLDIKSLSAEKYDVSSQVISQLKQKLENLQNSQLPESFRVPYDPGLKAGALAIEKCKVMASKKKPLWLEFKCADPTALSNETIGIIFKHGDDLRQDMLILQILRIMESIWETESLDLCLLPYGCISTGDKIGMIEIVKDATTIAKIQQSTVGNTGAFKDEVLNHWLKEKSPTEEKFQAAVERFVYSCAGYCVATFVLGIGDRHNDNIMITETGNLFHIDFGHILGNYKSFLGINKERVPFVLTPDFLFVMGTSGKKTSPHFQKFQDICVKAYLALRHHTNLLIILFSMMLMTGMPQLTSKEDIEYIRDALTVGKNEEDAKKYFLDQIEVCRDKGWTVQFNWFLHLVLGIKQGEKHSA

Compound	IC50 (PI3Kα (p110α/p85α)(h)) [nM]	IC50 (PI3Kδ (p110δ/p85α)(h)) [nM]	IC50 (PI3Kγ (p120γ)(h)) [nM]
CC(C)[C@H](Nc1ncnc2ccc(C#N)cc12)c1nc2cccc(-c3cnc(N)nc3)c2c(=O)n1-c1ccccc1 [Example 13, (S)-4-((1-(5-(2-aminopyrimidin-5-yl)-4-oxo-3-phenyl-3,4-dihydroquinazolin-2-yl)-2-methylpropyl)amino)quinazoline-6-carbonitrile]	1480	24	2890
CC[C@H](Nc1ncnc2ccc(C#N)cc12)c1nc2cccc(-c3cnc(OC)nc3)c2c(=O)n1-c1ccccc1 [Example 5, (S)-4-((1-(5-(2-methoxypyrimidin-5-yl)-4-oxo-3-phenyl-3,4-dihydroquinazolin-2-yl)propyl)amino)quinazoline-6-carbonitrile]	1010	14	2150
CC[C@H](Nc1ncnc2ccc(C#N)cc12)c1nc2cccc(-c3cncnc3)c2c(=O)n1-c1ccccc1 [Example 4, (S)-4-((1-(4-oxo-3-phenyl-5-(pyrimidin-5-yl)-3,4-dihydroquinazolin-2-yl)propyl)amino)quinazoline-6-carbonitrile]	2210	14	3630
CC[C@H](Nc1ncnc2ccc(C#N)cc12)c1cc2cccc(-c3cnc(OC)nc3)c2c(=O)n1-c1ccccc1 [Example 40, (S)-4-((1-(8-(2-methoxypyrimidin-5-yl)-1-oxo-2-phenyl-1,2-dihydroisoquinolin-3-yl)propyl)amino)quinazoline-6-carbonitrile]	908	2	237
CC[C@H](Nc1ncnc2ccc(C#N)cc12)c1nc2cccc(-c3cnc(N(C)C)nc3)c2c(=O)n1-c1ccccc1 [Example 7, (S)-4-((1-(5-(2-(dimethylamino)pyrimidin-5-yl)-4-oxo-3-phenyl-3,4-dihydroquinazolin-2-yl)propyl)amino)quinazoline-6-carbonitrile]	638	20	747
COc1ncc(-c2cccc3nc([C@@H](Nc4ncnc5ccc(C#N)cc45)C4CC4)n(-c4ccccc4)c(=O)c23)cn1 [Example 15, (S)-4-((cyclopropyl(5-(2-methoxypyrimidin-5-yl)-4-oxo-3-phenyl-3,4-dihydroquinazolin-2-yl)methyl)amino)quinazoline-6-carbonitrile]	751	17	364
Cc1ncc(-c2cccc3nc([C@H](C)Nc4ncnc5ccc(C#N)cc45)n(-c4ccccc4)c(=O)c23)cn1 [Example 3, (S)-4-((1-(5-(2-methylpyrimidin-5-yl)-4-oxo-3-phenyl-3,4-dihydroquinazolin-2-yl)ethyl)amino)quinazoline-6-carbonitrile]	1770	22	262
CC[C@H](Nc1ncnc2ccc(C#N)cc12)c1nc2cccc(-c3cnc(SC)nc3)c2c(=O)n1-c1ccccc1 [Example 8, (S)-4-((1-(5-(2-(methylsulfanyl)pyrimidin-5-yl)-4-oxo-3-phenyl-3,4-dihydroquinazolin-2-yl)propyl)amino)quinazoline-6-carbonitrile]	787	18	1720
Cc1ncc(-c2cccc3cc([C@@H](Nc4ncnc5cccc(F)c45)C(C)C)n(-c4ccccc4)c(=O)c23)cn1 [Example 47, (S)-3-(1-((5-fluoroquinazolin-4-yl)amino)-2-methylpropyl)-8-(2-methylpyrimidin-5-yl)-2-phenylisoquinolin-1(2H)-one]	–	23	> 1000
CC(C)[C@H](Nc1ncnc2cccc(F)c12)c1cc2cccc(-c3cncnc3)c2c(=O)n1-c1ccccc1 [Example 45, (S)-3-(1-((5-fluoroquinazolin-4-yl)amino)-2-methylpropyl)-2-phenyl-8-(pyrimidin-5-yl)isoquinolin-1(2H)-one]	–	17	> 1000
CC[C@H](Nc1ncnc2cccc(F)c12)c1nc2cccc(-c3cncnc3)c2c(=O)n1-c1ccccc1 [Example 24, (S)-2-(1-((5-fluoroquinazolin-4-yl)amino)propyl)-3-phenyl-5-(pyrimidin-5-yl)quinazolin-4(3H)-one]	8120	17	4280
CC[C@H](Nc1ncnc2cccc(F)c12)c1nc2cccc(-c3cnc(C)nc3)c2c(=O)n1-c1ccccc1 [Example 27, (S)-2-(1-((5-fluoroquinazolin-4-yl)amino)propyl)-5-(2-methylpyrimidin-5-yl)-3-phenylquinazolin-4(3H)-one]	7260	27	4980
C[C@H](Nc1ncnc2ccc(C#N)cc12)c1nc2cccc(-c3cncnc3)c2c(=O)n1-c1ccccc1 [Example 1, (S)-4-((1-(4-oxo-3-phenyl-5-(pyrimidin-5-yl)-3,4-dihydroquinazolin-2-yl)ethyl)amino)quinazoline-6-carbonitrile]	3550	20	922
CC[C@H](Nc1ncnc2ccc(C#N)cc12)c1cc2cccc(-c3cncnc3)c2c(=O)n1-c1ccccc1 [Example 39, (S)-4-((1-(1-oxo-2-phenyl-8-(pyrimidin-5-yl)-1,2-dihydroisoquinolin-3-yl)propyl)amino)quinazoline-6-carbonitrile]	712	1	195
CCOc1ncc(-c2cccc3nc([C@@H](Nc4ncnc5ccc(C#N)cc45)C4CC4)n(-c4ccccc4)c(=O)c23)cn1 [Example 16, (S)-4-((cyclopropyl(5-(2-ethoxypyrimidin-5-yl)-4-oxo-3-phenyl-3,4-dihydroquinazolin-2-yl)methyl)amino)quinazoline-6-carbonitrile]	1290	4	434
O=c1c2c(-c3cncnc3)cccc2nc([C@@H](Nc2ncnc3cccc(F)c23)C2CC2)n1-c1ccccc1 [Example 30, (S)-2-(cyclopropyl((5-fluoroquinazolin-4-yl)amino)methyl)-3-phenyl-5-(pyrimidin-5-yl)quinazolin-4(3H)-one]	5300	19	2640
N#Cc1ccc2ncnc(N[C@H](c3nc4cccc(-c5cncnc5)c4c(=O)n3-c3ccccc3)C3CC3)c2c1 [Example 14, (S)-4-((cyclopropyl(4-oxo-3-phenyl-5-(pyrimidin-5-yl)-3,4-dihydroquinazolin-2-yl)methyl)amino)quinazoline-6-carbonitrile]	841	3	537
CC[C@H](Nc1ncnc2ccc(C#N)cc12)c1cc2cccc(-c3cnc(C)nc3)c2c(=O)n1-c1ccccc1 [Example 42, (S)-4-((1-(8-(2-methylpyrimidin-5-yl)-1-oxo-2-phenyl-1,2-dihydroisoquinolin-3-yl)propyl)amino)quinazoline-6-carbonitrile]	1630	1	654
C[C@H](Nc1ncnc2cccc(F)c12)c1nc2cccc(-c3cncnc3)c2c(=O)n1-c1ccccc1 [Example 22, (S)-2-(1-((5-fluoroquinazolin-4-yl)amino)ethyl)-3-phenyl-5-(pyrimidin-5-yl)quinazolin-4(3H)-one]	–	30	5940
CC(C)[C@H](Nc1ncnc2cccc(F)c12)c1nc2cccc(-c3cncnc3)c2c(=O)n1-c1ccccc1 [Example 28, (S)-2-(1-((5-fluoroquinazolin-4-yl)amino)-2-methylpropyl)-3-phenyl-5-(pyrimidin-5-yl)quinazolin-4(3H)-one]	–	19	–
